{"source": "patent US11786514B2", "about": "“Sustained release aminopyridine composition” (priority 2003, dated 2023)", "key": {"[1]": {"assay": "Multiple oral dose pharmacokinetics in patients with SCI (Example 3)", "settings": "both sexes, human, in vivo", "procedure": "This example details the plasma concentration of different dosage tablets of a aminopyridine in compositions of the present invention administered to patients with spinal cord injury. Pharmacokinetic results are presented for the subset of 11 patients who completed all dose levels. […] The time of the peak and the plasma elimination half-lives were independent of dose. […] The […] of fampridine ranged from 5.7 to 6.9 hours. There were no apparent differences between males and females."}, "[2]": {"assay": "Single dose, dose proportionality pharmacokinetics and safety in patients with multiple sclerosis (Example 4)", "type": "in vivo, human", "procedure": "This example details the pharmacokinetic properties of Fampridine-SR in tablets of the present invention administered to patients with multiple sclerosis. Plasma samples were analyzed for fampridine using a validated LC/MS/MS assay with a sensitivity of 2 ng/mL. Noncompartmental pharmacokinetic parameter values were calculated using standard methodology.\nThis was an open-label, multi-center, dose proportionality study of orally administered fampridine in patients with multiple sclerosis. Single doses of fampridine were to be given in escalating doses (5 mg, 10 mg, 15 mg, and 20 mg) with at least a four-day interval between administration of each dose of drug. Safety evaluations were to be performed during the 24 hour period following administration of fampridine and blood samples were to be taken at the following times to determine pharmacokinetic parameters: hour 0 (pre-dose), hours 1-8, and hours 10, 12, 14, 18, and 24.\nTwenty-three subjects received all 4 treatments, and one subject received only 3 treatments; data from all treatments were analyzed. Dose-dependent parameters (e.g., peak plasma concentration and areas-under-the curve) were normalized to a 10 mg dose for among-dose comparisons."}, "[3]": {"assay": "Steady state pharmacokinetics and safety in patients with MS (Example 5)", "type": "in vivo, human", "procedure": "This example describes the results of an open-label study to assess the steady state pharmacokinetics of orally administered fampridine (4-aminopyridine) compositions of the present invention in subjects with Multiple Sclerosis. […] Blood samples for pharmacokinetic analysis were collected on Days 1, 7/8, and 14/15 at the following intervals: immediately prior to drug administration (baseline), hourly for the first 8 hours, and 10, 12, and 24 hours post-dose. Additional blood samples were collected 14, 18, and 20 hours post-dose on Day 14, and 30 and 36 hours post-dose on Day 15."}, "[4]": {"assay": "Single escalating dose pharmacokinetics and tolerability in patients with chronic incomplete SCI (Example 6)", "procedure": "Each patient was to receive each dose in an ascending fashion. Each dose was to be followed by a 7-day washout period. […] Patients were to continue their fast for 4 hours after dosing and then a standard meal was to be served. Blood samples for pharmacokinetic analysis were to be obtained at Hour 0 (immediately preceding study drug administration) and 1, 2, 3, 4, 5, 6, 8, 10, 12, 16, 20, and 24 hours after each dose. A baseline urine sample was to be collected prior to dosing and urine was to be collected for 24 hours after administration of the study drug at the following intervals: 0.1 to 4 hours; 4.1 to 8 hours; 8.1 to 12 hours; and 12.1 to 24 hours."}, "[5]": {"settings": "all doses 5-20 mg, mean and 95% confidence interval, patients with MS"}, "[6]": {"settings": "20 mg twice daily for two weeks, patients with MS"}, "[7]": {"settings": "single doses 10-25 mg, patients with chronic incomplete SCI"}}, "data": [{"smiles": "Nc1ccncc1", "note": "[fampridine, 4-aminopyridine]", "values": [{"measurement": "Tmax", "setting": "[1]", "result": "2.2 to 3", "unit": "h"}, {"measurement": "half-life", "setting": "[1]", "result": "5.7 to 6.9", "unit": "h"}, {"measurement": "Cmax", "setting": "[1]; po, 60 mg", "result": 152, "unit": "ng/mL"}, {"measurement": "terminal half-life", "setting": "[2]; [5]", "result": "5.47 (5.05, 5.89) h"}, {"measurement": "terminal rate constant", "setting": "[2]; [5]", "result": "0.14 (0.13, 0.15) h^−1"}, {"measurement": "area-under-the-concentration-time curve (normalized to a 10 mg dose)", "setting": "[2]; human, in vivo", "result": "254 (238, 270) ng-h/ml"}, {"measurement": "clearance", "setting": "[2]; human, in vivo", "result": 637, "unit": "mL/min"}, {"measurement": "differences between pharmacokinetic parameters (AUC, Cmax, t1/2) normalized to the 10.0 mg dose", "setting": "[2]; human, in vivo", "result": "no significant differences"}, {"measurement": "extrapolated area-under-the-concentration-time curve (normalized to a 10 mg dose)", "setting": "[2]; human, in vivo", "result": "284 (266, 302) ng-h/ml"}, {"measurement": "observed peak plasma fampridine concentration (normalized to a 10 mg dose)", "setting": "[2]; human, in vivo", "result": "24.12 (23.8, 26.6) ng/ml"}, {"measurement": "tolerability", "setting": "[2]; single doses 5-20 mg, patients with MS", "result": "well tolerated"}, {"measurement": "changes in corrected QT intervals or QRS amplitudes", "setting": "[3]; [6]", "result": "no apparent clinically significant changes"}, {"measurement": "changes in mean clinical laboratory values, vital signs, or physical examination findings from baseline to last visit", "setting": "[3]; [6]", "result": "no clinically significant changes"}, {"measurement": "most common treatment-related adverse event", "setting": "[3]; [6]", "result": "Dizziness"}, {"measurement": "other treatment-related adverse events", "setting": "[3]; [6]", "result": "nausea, ataxia, insomnia, and tremor"}, {"measurement": "tolerability", "setting": "[3]; 20 mg/dose twice daily for two weeks, subjects with multiple sclerosis", "result": "well tolerated"}, {"measurement": "Cmax", "setting": "[4]; 25 mg single dose, fasted, patients with chronic incomplete SCI", "result": 67.4, "unit": "ng/mL"}, {"measurement": "time of peak concentration (mean tmax) post-dose, over dose levels", "setting": "[4]; human, in vivo", "result": "3 to 4", "unit": "h"}, {"measurement": "Cmax", "setting": "[4]; human, in vivo, 10 mg", "result": 27.7, "unit": "ng/mL"}, {"measurement": "AUC0-24h as percentage of AUC0-∞", "setting": "[4]; [7]", "result": "at least 92%"}, {"measurement": "mean plasma half-life (t1/2), independent of dose", "setting": "[4]; [7]", "result": "approximately 6 hours"}]}]}
